Measurements as given in patent US8952024B2, “Herbicidal pyrimidone derivatives” (E I du Pont de Nemours and Company, priority 2009, dated 2015).

Assays:
Test in all cases: Test D pre-/postemergence plant response
Type in all cases: in vivo
[1] = tested on: prickly sida (Sida spinosa)
Description: (§1) Seeds of plant species selected from bermudagrass (Cynodon dactylon), Surinam grass (Brachiaria decumbens), large crabgrass (Digitaria sanguinalis), green foxtail (Setaria viridis), goosegrass (Eleusine indica), johnsongrass (Sorghum halepense), kochia (Kochia scoparia), morningglory (pitted morningglory, Ipomoea lacunosa), nutsedge (purple nutsedge, Cyperus rotundus), ragweed (common ragweed, Ambrosia elatior), black mustard (Brassica nigra), guineagrass (Panicum maximum), dallisgrass (Paspalum dilatatum), barnyardgrass (Echinochloa crus-galli), sandbur (southern sandbur, Cenchrus echinatus), sowthistle (common sowthistle, Sonchus oleraceous), prickly sida (Sida spinosa), Italian ryegrass (Lolium multiflorum), purslane (common purslane, Portulaca oleracea), signalgrass (broadleaf signalgrass, Brachiaria platyphylla), groundsel (common groundsel, Senecio vulgaris), chickweed (common chickweed, Stellaria media), dayflower (Virginia (VA) dayflower, Commelina virginica), bluegrass (annual bluegrass, Poa annua), naked crabgrass (Digitaria nuda), itchgrass (Rottboellia cochinchinensis), quackgrass (Elytrigia repens), field bindweed (Convolvulus arvensis), spanishneedles (Bidens bipinnata), mallow (common mallow, Malva sylvestris) and Russian thistle (Salsola kali), were planted into a blend of loam soil and sand and treated preemergence with test chemicals formulated in a non-phytotoxic solvent mixture which included a surfactant. At the same time, plants from these weed species were treated with postemergence applications of the test chemicals formulated in the same manner. Plants ranged in height from 2 to 18 cm (1- to 4-leaf stage) for postemergence treatments.
(§2) Treated plants and controls were maintained in a greenhouse for 14 to 21 days, after which time all species were visually evaluated and compared to controls. Plant response ratings, summarized in Table D, are based on a scale of 0 to 100 where 0 is no effect and 100 is complete control. A dash (-) response means no test result.

[2] = tested on: chickweed (common chickweed, Stellaria media); settings: Postemergence, 125 g ai/ha; scale 0 to 100 (0 no effect, 100 complete control)
Description: as §1, §2

[3] = tested on: Italian ryegrass (Lolium multiflorum)
Description: as §1, §2

[4] = tested on: black mustard (Brassica nigra)
Description: as §1, §2

[5] = tested on: sandbur (southern sandbur, Cenchrus echinatus)
Description: as §1, §2

[6] = tested on: field bindweed (Convolvulus arvensis)
Description: as §1, §2

[7] = tested on: morningglory (pitted morningglory, Ipomoea lacunosa)
Description: as §1, §2

[8] = tested on: purslane (common purslane, Portulaca oleracea)
Description: as §1, §2

[9] = tested on: nutsedge (purple nutsedge, Cyperus rotundus)
Description: as §1, §2

[10] = tested on: Russian thistle (Salsola kali); settings: scale 0 to 100
Description: as §1, §2

[11] = tested on: ragweed (common ragweed, Ambrosia elatior)
Description: as §1, §2

[12] = tested on: spanishneedles (Bidens bipinnata)
Description: as §1, §2

[13] = tested on: large crabgrass (Digitaria sanguinalis)
Description: as §1, §2

[14] = tested on: quackgrass (Elytrigia repens)
Description: as §1, §2

[15] = tested on: bluegrass (annual bluegrass, Poa annua)
Description: as §1, §2

[16] = tested on: signalgrass (broadleaf signalgrass, Brachiaria platyphylla)
Description: as §1, §2

[17] = Postemergence, 16 g ai/ha, scale 0 to 100
[18] = Postemergence, 31 g ai/ha, scale 0 to 100
[19] = Postemergence, 125 g ai/ha, scale 0 to 100 (0 no effect, 100 complete control)
[20] = Postemergence, 62 g ai/ha, scale 0 to 100 (0 no effect, 100 complete control)
[21] = Preemergence, 16 g ai/ha, scale 0 to 100, 0 no effect, 100 complete control
[22] = Preemergence, 31 g ai/ha, scale 0 to 100 (0 no effect, 100 complete control)
[23] = Preemergence, 62 g ai/ha, scale 0 to 100
[24] = Preemergence, 125 g ai/ha, scale 0 to 100
[25] = Postemergence, 31 g ai/ha, scale 0 to 100 (0 no effect, 100 complete control)

Cc1ccc(F)c(-n2c(-c3ccccc3)ncc(C(=O)C3=C(O)CCCC3=O)c2=O)c1 [Compound 51]
65: Plant response rating, Prickly Sida [1, 20] | Plant response rating, Morningglory [7, 19] | Plant response rating, Purslane [8, 23]
35: Plant response rating, Prickly Sida [1, 24] | Plant response rating, Purslane [8, 19] | Plant response rating, Purslane [8, 20] | Plant response rating, Ragweed [11, 21] | Plant response rating, Spanishneedles [12, 17] | Plant response rating, Crabgrass, Large [13, 18] | Plant response rating, Crabgrass, Large [13, 19] | Plant response rating, Crabgrass, Large [13, 20] | Plant response rating, Signalgrass [16, 18]
5: Plant response rating, Sandbur [5, 17] | Plant response rating, Field Bindweed [6, 17] | Plant response rating, Field Bindweed [6, 18] | Plant response rating, Nutsedge, Purple [9, 23] | Plant response rating, Nutsedge, Purple [9, 24] | Plant response rating, Crabgrass, Large [13, 22] | Plant response rating, Crabgrass, Large [13, 23] | Plant response rating, Crabgrass, Large [13, 24] | Plant response rating, Signalgrass [16, 17]
60: Plant response rating, Sandbur [5, 19] | Plant response rating, Field Bindweed [6, 19] | Plant response rating, Ragweed [11, 17] | Plant response rating, Spanishneedles [12, 20]
80: Plant response rating, Ragweed [11, 20]
95: Plant response rating, Black Mustard [4, 25] | Plant response rating, Ragweed [11, 24]
70: Plant response rating, Chickweed [2] | Plant response rating, Black Mustard [4, 17] | Plant response rating, Spanishneedles [12, 19]
85: Plant response rating, Ragweed [11, 19]
0: Plant response rating, Prickly Sida [1, 21] | Plant response rating, Ryegrass, Italian [3, 17] | Plant response rating, Ryegrass, Italian [3, 18] | Plant response rating, Ryegrass, Italian [3, 19] | Plant response rating, Ryegrass, Italian [3, 20] | Plant response rating, Ryegrass, Italian [3, 21] | Plant response rating, Ryegrass, Italian [3, 22] | Plant response rating, Ryegrass, Italian [3, 24] | Plant response rating, Black Mustard [4, 21] | Plant response rating, Sandbur [5, 21] | Plant response rating, Sandbur [5, 22] | Plant response rating, Field Bindweed [6, 21] | Plant response rating, Field Bindweed [6, 22] | Plant response rating, Field Bindweed [6, 23] | Plant response rating, Field Bindweed [6, 24] | Plant response rating, Morningglory [7, 17] | Plant response rating, Morningglory [7, 21] | Plant response rating, Morningglory [7, 22] | Plant response rating, Purslane [8, 21] | Plant response rating, Nutsedge, Purple [9, 17] | Plant response rating, Nutsedge, Purple [9, 18] | Plant response rating, Nutsedge, Purple [9, 21] | Plant response rating, Nutsedge, Purple [9, 22] | Plant response rating, Russian Thistle ([10]; Postemergence, 16 g ai/ha) | Plant response rating, Spanishneedles [12, 21] | Plant response rating, Spanishneedles [12, 22] | Plant response rating, Crabgrass, Large [13, 21] | Plant response rating, Quackgrass [14, 17] | Plant response rating, Quackgrass [14, 18] | Plant response rating, Quackgrass [14, 19] | Plant response rating, Quackgrass [14, 20] | Plant response rating, Quackgrass [14, 21] | Plant response rating, Quackgrass [14, 22] | Plant response rating, Quackgrass [14, 24] | Plant response rating, Bluegrass [15, 17] | Plant response rating, Bluegrass [15, 25] | Plant response rating, Bluegrass [15, 19] | Plant response rating, Bluegrass [15, 20] | Plant response rating, Bluegrass [15, 21] | Plant response rating, Bluegrass [15, 22] | Plant response rating, Bluegrass [15, 23] | Plant response rating, Bluegrass [15, 24] | Plant response rating, Signalgrass [16, 21] | Plant response rating, Signalgrass [16, 22]
15: Plant response rating, Nutsedge, Purple [9, 20]
25: Plant response rating, Sandbur [5, 18] | Plant response rating, Sandbur [5, 20] | Plant response rating, Crabgrass, Large [13, 17]
10: Plant response rating, Purslane [8, 17] | Plant response rating, Signalgrass [16, 24]
75: Plant response rating, Prickly Sida [1, 19] | Plant response rating, Black Mustard [4, 23] | Plant response rating, Sandbur [5, 24] | Plant response rating, Russian Thistle ([10]; Preemergence, 125 g ai/ha) | Plant response rating, Ragweed [11, 18]
20: Plant response rating, Prickly Sida [1, 22] | Plant response rating, Prickly Sida [1, 23] | Plant response rating, Field Bindweed [6, 20] | Plant response rating, Morningglory [7, 18] | Plant response rating, Morningglory [7, 20] | Plant response rating, Purslane [8, 18] | Plant response rating, Nutsedge, Purple [9, 19]
100: Plant response rating, Black Mustard [4, 19] | Plant response rating, Black Mustard [4, 24] | Plant response rating, Morningglory [7, 24] | Plant response rating, Purslane [8, 24]
98: Plant response rating, Spanishneedles [12, 24]
50: Plant response rating, Prickly Sida [1, 17] | Plant response rating, Prickly Sida [1, 18] | Plant response rating, Black Mustard [4, 22] | Plant response rating, Purslane [8, 22] | Plant response rating, Ragweed [11, 22] | Plant response rating, Spanishneedles [12, 18] | Plant response rating, Signalgrass [16, 19] | Plant response rating, Signalgrass [16, 20]
30: Plant response rating, Morningglory [7, 23]
